33 compounds from patent US12319655B2, “RAF kinase inhibitors and methods of use thereof” (Deciphera Pharmaceuticals, LLC, priority 2021, dated 2025) can be followed below.

The subject of test [1] is Miapaca-2 cells. Nature of the test: MiaPaca-2 Cell Proliferation Assay (1). The note with it: Homo sapiens, MIA PaCa-2, single agent, read-out: MiaPaca2 (1) IC50. Format: cell-based. In outline: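 Resazurin was added after compound exposure and incubated 5-6 h, then fluorescence read at 540 nm excitation and 600 nm emission to give IC50.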
In test [2] the target is A-Raf kinase (SEQ. ID No: 1) (Homo sapiens (Human), UniProt P10398, Y301D/Y302D). Nature of the test: Biochemical Assay for A-Raf (1). The settings on record: Table J, assay version (1); read-out: ARAF (1) IC50. In outline: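 IC50 values were derived by four-parameter sigmoidal fitting of percent inhibition, calculated from reaction rates over the 4–5 h window. Absorbance at 340 nm was tracked for 6 h at 30 °C via coupled PK/LDH NADH depletion. Conditions: 1 mM ATP, 30.1 nM MEK substrate, 5.55 nM A-Raf (Y301D/Y302D), Tris pH 7.5, 1% DMSO.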

The subject of test [3] is WM3928 cells. Kind of test: WM3928 Cell Proliferation Assay (1). The test is classed as cell-based. In outline: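 IC50 was derived from resazurin fluorescence (ex 540, em 600 nm) after a 6–7 h dye incubation. Before that, cells had 67–72 h of compound exposure at 37 °C, 5% CO2.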
Test [4] relates to A375 cells. Kind of test: A375 Cell Proliferation Assay (1). Format: cell-based. The note with it: Homo sapiens, A-375. In outline:
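Resazurin fluorescence (excitation 540 nm, emission 600 nm, after a further 5-6 h) gave IC50s from triplicate compound dilution series.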

A-Raf kinase (SEQ. ID No: 1), sequence (P10398 other isoform, or with tags, fused parts or gaps Y301D (already in the parent)/Y302D (already in the parent)): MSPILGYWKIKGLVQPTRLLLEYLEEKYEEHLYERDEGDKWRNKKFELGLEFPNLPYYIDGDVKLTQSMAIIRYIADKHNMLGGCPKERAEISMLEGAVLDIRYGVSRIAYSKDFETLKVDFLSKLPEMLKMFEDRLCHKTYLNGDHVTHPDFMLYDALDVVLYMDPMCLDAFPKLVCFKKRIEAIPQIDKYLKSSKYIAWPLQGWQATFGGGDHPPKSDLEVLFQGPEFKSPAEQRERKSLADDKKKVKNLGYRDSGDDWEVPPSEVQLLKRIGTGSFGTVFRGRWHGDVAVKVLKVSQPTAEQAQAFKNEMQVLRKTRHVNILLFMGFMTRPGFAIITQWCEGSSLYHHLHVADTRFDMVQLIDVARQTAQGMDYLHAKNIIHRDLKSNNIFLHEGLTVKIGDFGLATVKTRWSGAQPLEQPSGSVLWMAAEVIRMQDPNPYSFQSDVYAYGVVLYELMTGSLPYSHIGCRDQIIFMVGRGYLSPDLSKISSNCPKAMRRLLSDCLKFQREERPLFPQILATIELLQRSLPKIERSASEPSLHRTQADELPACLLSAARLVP

Regarding `Cc1cc(F)c(NC(=O)c2cnnc(C3CC3)c2)cc1-c1ccnc(-c2ccnc(NC(=O)C3CC3)c2)n1` [Example 263], the IC50 (as a rule, the midpoint of a concentration-inhibition curve) was in the range of 1000 to 10000 nM in test [1], 1000 to 10000 nM in test [2], 500 to 1000 nM in test [3] and 1000 to 10000 nM in test [4].
On to `Cc1ccc(NC(=O)c2ccnc(C3(C#N)CC3)c2)cc1-c1nccc(-c2ccnc(NC(=O)C3CC3)c2)n1` [Example 187], for which the IC50 is 1000 to 10000 nM in test [1], 100 to 500 nM in test [2], no more than 100 nM in test [3] and no more than 100 nM in test [4].
Take `Cc1ncc(NC(=O)c2ccnc(C(C)(C)C#N)c2)cc1-c1ccnc(-c2ccnc(NC(=O)C3CC3)c2)n1` [Example 193]: the IC50 in test [1] was 1000 to 10000 nM; in test [2], 1000 to 10000 nM; in test [3] it was no more than 100 nM; in test [4], no more than 100 nM.
With `Cc1cc(F)c(NC(=O)c2ccnc(C(F)(F)F)c2)cc1-c1cncc(-c2ccnc(NC(=O)C3CC3)c2)n1` [Example 271], the IC50 is 1000 to 10000 nM in test [1], 500 to 1000 nM in test [2], no more than 100 nM in test [3] and 500 to 1000 nM in test [4].
For `CNC(=O)c1cc(-c2cc(-c3cc(NC(=O)c4cccc(C(C)(C)C#N)c4)ccc3C)cc(OCCO)n2)ccn1` [Example 231], the IC50 is 1000 to 10000 nM in test [1], 1000 to 10000 nM in test [2], no more than 100 nM in test [3] and no more than 100 nM in test [4].
For the compound `COC(C)(C)c1cc(C(=O)Nc2cnc(C)c(-c3cccc(-c4cc(NC(=O)C5CC5)ncn4)c3)c2)ccn1` [Example 274], the IC50 in test [1] is 1000 to 10000 nM; in test [2], 1000 to 10000 nM; in test [3], no more than 100 nM; in test [4], no more than 100 nM.
On to `Cc1ccc(NC(=O)c2ccnc(C(C)(C)C#N)c2)cc1-c1cccc(-c2cc(NC(=O)C3(C)CC3)ncn2)c1` [Example 197], for which the IC50 in test [1] is 1000 to 10000 nM; in test [2], 1000 to 10000 nM; in test [3], no more than 100 nM; in test [4], no more than 100 nM.
As to `Cc1cc(F)c(NC(=O)c2ccnc(C3(C#N)CC3)c2)cc1-c1ccnc(-c2ccnc(NC(=O)C3CC3)c2)n1` [Example 262], the IC50 is 1000 to 10000 nM in test [1], 500 to 1000 nM in test [2], no more than 100 nM in test [3] and no more than 100 nM in test [4].
In the case of `CNC(=O)c1cc(-c2cccc(-c3cc(NC(=O)c4ccnc(C(C)(C)C#N)c4)cnc3C)c2)ccn1` [Example 192], the IC50 in test [1] is 1000 to 10000 nM; in test [2], 1000 to 10000 nM; in test [3], no more than 100 nM; in test [4], no more than 100 nM.
Turning to `CNC(=O)c1cc(-c2cc(-c3cc(NC(=O)c4ccnc(C(C)(C)F)c4)ccc3C)ccn2)ccn1` [Example 214], the IC50 is 1000 to 10000 nM in test [1], 1000 to 10000 nM in test [2], no more than 100 nM in test [3] and no more than 100 nM in test [4].
On to `Cc1ccc(NC(=O)c2ccnc(C(C)(C)C#N)c2)cc1-c1ccnc(-c2ccnc(NC(=O)C3CC3)c2)n1` [Example 257], for which the IC50 in test [1] was 1000 to 10000 nM; in test [2], 500 to 1000 nM; in test [3], no more than 100 nM; in test [4], no more than 100 nM.
`Cc1ncc(NC(=O)c2ccnc(C(C)(C)C#N)c2)cc1-c1ccnc(-c2ccnc(NC(=O)C(C)(C)C#N)c2)c1` [Example 219]: the IC50 in test [1] was in the range of 1000 to 10000 nM; in test [2], 1000 to 10000 nM; in test [3] it was 100 to 500 nM; in test [4] it was 100 to 500 nM.
`CNC(=O)c1cc(-c2cccc(-c3cc(NC(=O)c4ccnc(C(C)(C)C#N)c4)cnc3C)c2)ncn1` [Example 204]: the IC50 lay in the range of 1000 to 10000 nM in test [1], 1000 to 10000 nM in test [2], 100 to 500 nM in test [3] and 100 to 500 nM in test [4].
Regarding `Cc1ccc(NC(=O)c2ccnc(C(F)(F)F)c2)cc1-c1ccnc(-c2ccnc(N)c2)c1` [Example 16, N-(3-(2′-amino-[2,4′-bipyridin]-4-yl)-4-methylphenyl)-2-(trifluoromethyl)isonicotinamide], the IC50 in test [1], in test [2], in test [3] and in test [4] was 1000 to 10000 nM throughout.
With `CNC(=O)c1cc(-c2cc(-c3cc(NC(=O)c4ccnc(C5(C#N)CC5)c4)ccc3C)ccn2)ccn1` [Example 265], the IC50 in test [1] was 1000 to 10000 nM; in test [2], 1000 to 10000 nM; in test [3], no more than 100 nM; in test [4] it was no more than 100 nM.
As for `Cc1ccc(NC(=O)c2ccnc(C(C)(C)C#N)c2)cc1-c1cnnc(-c2ccnc(NC(=O)C3CC3)c2)c1` [Example 230], the IC50 in test [1] was 500 to 1000 nM; in test [2] it was 1000 to 10000 nM; in test [3] it was no more than 100 nM; in test [4], no more than 100 nM.
With `Cc1ccc(NC(=O)c2ccnc(C(C)(C)C#N)c2)cc1-c1ccnc(-c2ccnc(NC(=O)C3(C#N)CC3)c2)n1` [Example 241], the IC50 is 500 to 1000 nM in test [1], 1000 to 10000 nM in test [2], no more than 100 nM in test [3] and no more than 100 nM in test [4].
As to `Cc1ccc(NC(=O)c2ccnc(C(C)(C)C#N)c2)cc1-c1cccc(-c2cc(NC(=O)C3CC3)ncn2)n1` [Example 233], the IC50 fell in the range of 1000 to 10000 nM in test [1], 1000 to 10000 nM in test [2], 1000 to 10000 nM in test [3] and 500 to 1000 nM in test [4].
On to `Cc1ccc(NC(=O)c2ccnc(C(C)(C)C#N)c2)cc1-c1cc(-c2ccnc(NC(=O)C3CC3)c2)cnn1` [Example 245], for which the IC50 in test [1] was 1000 to 10000 nM; in test [2], 500 to 1000 nM; in test [3], no more than 100 nM; in test [4] it was no more than 100 nM.
As to `Cc1ccc(NC(=O)c2ccnc(C(F)F)c2)cc1-c1ccnc(-c2ccnc(NC(=O)C3CC3)c2)n1` [Example 189], the IC50 is 1000 to 10000 nM in test [1], 500 to 1000 nM in test [2], no more than 100 nM in test [3] and 100 to 500 nM in test [4].
The matching figures for `Cc1ncc(NC(=O)c2cnn(C(C)(C)C)c2)cc1-c1cccc(-c2cc(NC(=O)C3CC3)ncn2)c1` [Example 279]: 1000 to 10000 nM, 1000 to 10000 nM, no more than 100 nM and 100 to 500 nM.
As to `Cc1ncc(NC(=O)c2ccnc(C(C)(C)C#N)c2)cc1-c1cccc(-c2ccnc(NC(=O)C3CC3)c2)c1` [Example 222], the IC50 in test [1] was 1000 to 10000 nM; in test [2], 500 to 1000 nM; in test [3], no more than 100 nM; in test [4] it was no more than 100 nM.
For `Cc1cc(C(=O)Nc2cnc(C)c(-c3ccnc(-c4ccnc(NC(=O)C5CC5)c4)n3)c2)ccn1` [Example 273], the IC50 in test [1], in test [2], in test [3] and in test [4] was 1000 to 10000 nM throughout.
In the case of `COCCNc1cc(-c2nccc(-c3cc(NC(=O)c4ccnc(C(C)(C)C#N)c4)ccc3C)n2)ccn1` [Example 221], the IC50 in test [1] was in the range of 1000 to 10000 nM; in test [2], 1000 to 10000 nM; in test [3], 500 to 1000 nM; in test [4], 1000 to 10000 nM.
Turning to `COC(C)(C)c1cc(C(=O)Nc2ccc(C)c(-c3ccnc(-c4ccnc(NC(=O)C5CC5)c4)n3)c2)ccn1` [Example 190], the IC50 is 1000 to 10000 nM in test [1], 500 to 1000 nM in test [2], no more than 100 nM in test [3] and no more than 100 nM in test [4].
Consider `Cc1ncc(NC(=O)c2ccnc(C(C)(C)F)c2)cc1-c1cccc(-c2cc(NC(=O)C3CC3)ncn2)c1` [Example 249], for which the IC50 in test [1] was 1000 to 10000 nM; in test [2] it was 500 to 1000 nM; in test [3], no more than 100 nM; in test [4] it was no more than 100 nM.
For `Cc1ncc(NC(=O)c2ccnc(C(C)(C)C#N)c2)cc1-c1ccnc(-c2ccnc(NC(=O)C3CC3)c2)c1` [Example 251], the IC50 in test [1] is 1000 to 10000 nM; in test [2], 1000 to 10000 nM; in test [3] it was no more than 100 nM; in test [4], no more than 100 nM.
With `Cc1ccc(NC(=O)c2cc(CN(C)C)cc(C(F)(F)F)c2)cc1-c1cccc(-c2cc(NC(=O)C3CC3)ncn2)c1` [Example 202], the IC50 in test [1] was 1000 to 10000 nM; in test [2] it was 1000 to 10000 nM; in test [3], no more than 100 nM; in test [4], no more than 100 nM.
`Cc1ncc(NC(=O)c2ccnc(C3CC3)c2)cc1-c1cnc(C)c(-c2ccnc(NC(=O)C3CC3)c2)c1` [Example 256]: the IC50 in test [1] was 1000 to 10000 nM; in test [2], 1000 to 10000 nM; in test [3], 500 to 1000 nM; in test [4], 500 to 1000 nM.
Consider `COC(=O)Nc1cc(-c2cccc(-c3cc(NC(=O)c4ccnc(C(C)(C)C#N)c4)cnc3C)c2)ncn1` [Example 225], for which the IC50 in test [1] is 1000 to 10000 nM; in test [2], 1000 to 10000 nM; in test [3], no more than 100 nM; in test [4] it was no more than 100 nM.
With `Cc1ncc(NC(=O)c2cnnc(C3CC3)c2)cc1-c1ccnc(-c2ccnc(NC(=O)C3CC3)c2)n1` [Example 278], the half-maximal inhibitory concentration (IC50) in test [1], in test [2], in test [3] and in test [4] was 1000 to 10000 nM each time.
Regarding `Cc1ncc(NC(=O)c2ccnc(C(C)(C)C#N)c2)cc1-c1cccc(-c2cc(NC(=O)C3CC3)ncn2)n1` [Example 226], the IC50 in test [1], in test [2], in test [3] and in test [4] was 1000 to 10000 nM in each case.
As for `Cc1ccc(NC(=O)c2ccnc(C3CC3)c2)cc1-c1ccnc(-c2ccnc(NC(=O)C3CC3)c2)n1` [Example 229], the IC50 is 1000 to 10000 nM in test [1], 100 to 500 nM in test [2], no more than 100 nM in test [3] and 100 to 500 nM in test [4].
